Assay [1] relates to 3T3-L1 fibroblasts. The settings on record: 200 nM.
Procedure: 3T3L1 fibroblasts from ATCC (embryonic muscle cell-line) batch F-12732 (batch-date 930301) were grown in 500 ml of DMEM, 50 ml of fetal bovine serum (FBS) and 11 ml of PEST. Medium was changed every second day. Cells were passaged when they were 80% confluent.
For differentiating purpose fibroblasts were Incubated in DMEM+10% FCS+5 kg/ml of insulin. 0.1 mM of IBMX and 0.25 μM of dexametason was added. After 2 days cells were transferred to DMEM+10% FCS+5 μg/ml Insulin. Medium was then changed every second day and consisted of DMEM+10% FCS. […] This served as positive control for differentiation.
Fibroblasts were also incubated with the same solutions except that IBMX and dexamethasone were exchanged with solutions of 17α-AED in ethanol and water, making the concentration of 17α-AED 100 or 200 nM in the cultures. Cultures were kept in incubator until confluent.
For assay [2], the system named is Dunning AT-1 rat prostatic tumour. The note with it: sections of treated rat prostatic tumour. The source says:
Tumours were investigated for Increased apoptosis with the Apop-Tag In situ apoptosis detection kit (Oncor, Gaithersburg, Md.).

`C[C@]12CC[C@H]3[C@@H](CC=C4C[C@@H](O)CC[C@@]43C)[C@@H]1CC[C@H]2O` [Compound 17α-AED, androstene-3β,17α-diol]: in assay [1], the cell proliferation entry is “marked inhibition of cell proliferation”. Further, the “programmed cell death compared to control (TUNEL)” value in assay [2] is on record as “no sign of increased programmed cell death”.

These data come from patent US20050192262A1, “Treatment of tumours” (priority 2001, published 2005).
